From EP0721336B1, “BENZAZOLE COMPOUNDS FOR USE IN THERAPY” (CANCER RESEARCH CAMPAIGN TECHNOLOGY LIMITED, priority 1993, dated 1995)
pIC50: −log10 of the molar value. Structures can show the parent of a compound that is named as a salt. Where two headings read alike, the source gives them in different places. Marks after values point to notes of the source that are not given here.

How the values were obtained:
[1] = tested on: MDA 468 mammary (ER-/EGFR+); assay: In vitro cytotoxicity assay; type: cell-based, human
Description: (§1) This is illustrated in Tables 1 and 2 at the end of the present description which show in vitro test results obtained in various sets of experiments for the cytotoxic activity of this compound CJM 126 against a range of human tumour cell lines, expressed in terms of IC50 values (concentration or dosage required to reduce cell growth or proliferation by 50%) calculated from dose-effect curves plotted for cultures of the cells in question.
(§2) In carrying out the above in vitro studies, the method used for conducting the cytotoxicity assays was generally substantially as follows: • Cells were maintained in a continuous logarithmic culture in Dulbecco's medium supplemented with 10% fetal calf serum and penicillin (100 IU/ml) and streptomycin (100 µg/ml). The cells were mildly trypsinized for passage and for use in assays. On day zero, 100µl of trypsinized tumour cells (1 x 10^4/ml) were plated in the wells of 96-well flat-bottom microtiter plates. […] On day two 50µl of the highest drug concentration was added to the wells of column 12 and from there serially diluted 3-fold to column 1 by serial transfer of 50µl using an 8-channel micropipette. The final volume of column 1 was adjusted to 100µl. No additions were made to the wells of rows A and B, which served as controls. The plates were further incubated for 5 days at 37°C and 5% CO2 in air. Each compound was tested in duplicate. • On day 7 the test was terminated by the addition of 100µl saline containing 0.002% w/v propidium iodide (Sigma), 0.3% drawing ink (Staedtler "Marsmatic 745" - Trade Mark) and 0.5% Triton X-100. The plates were kept at 4°C overnight before reading on an inverted microscope equipped with an automated scanning stage. Fluorescence intensity was measured in arbitrary units by a photomultiplier. An HP-87 computer controlled the movement of the stage and also collected and processed the data from the multiplier. • For each compound tested a dose-response curve was obtained and the IC50 value (the drug concentration at 50% inhibition of cell growth) was calculated.

[2] = tested on: MCF-7 mammary carcinoma cells; assay: In vitro cytotoxicity assay (cell growth, propidium iodide fluorescence); type: cell-based, human
Description: as §1, §2

[3] = tested on: MCF 7-ADR mammary; assay: In vitro cytotoxicity and growth stimulation assay; type: cell-based, human; details: for pIC50: Homo sapiens, NCI/ADR-RES
Description: as §1, §2

[4] = tested on: BO (T61) human mammary carcinomas; assay: In vivo activity against implanted BO tumour; design: species or system NMRI-nu/nu female mice
[5] = tested on: MCF-7 mammary carcinoma; assay: In vivo activity against MCF-7 tumour implanted s.c.; details: i.v., 10 mg/kg/day, qd 6, 13, 20
[6] = Homo sapiens, MDA 468 cells, values in text, read-out: IC50
[7] = Homo sapiens, MCF7, MCF 7-wt cells, values in text, read-out: IC50
[8] = Homo sapiens, MCF-wt, column B, read-out: MCF-wt B IC50 at >micromolar concentrations
[9] = Homo sapiens, column B, read-out: MDA 468 B IC50 at >micromolar concentrations
[10] = Homo sapiens, MCF-wt, column A, read-out: MCF-wt A IC50 at sub-micromolar concentrations
[11] = Homo sapiens, column A, read-out: MDA 468 A IC50 at sub-micromolar concentrations
[12] = column B, read-out: MCF7-Adr B IC50 at >micromolar concentrations

SMILES: Cc1ccc2nc(-c3ccc(N)cc3)sc2c1 [2-(4-aminophenyl)-6-methylbenzothiazole, reference compound]
- pIC50 [1, 6]: 6.40
- pIC50 [2, 7]: 6.42

SMILES: Nc1cccc(-c2nc3ccccc3s2)c1 [CJM 129, 2-(3-Aminophenyl)benzothiazole]
- MCF7-Adr A IC50 at sub-micromolar concentrations ([3]; column A): Inactive
- MCF7-Adr B IC50 at >micromolar concentrations ([3]; column B): Inactive
- pIC50 [2, 8]: < 5.00
- BWC ([4]; i.p., 2 mg/kg/day, qd 27,34,41): 2
- Relative tumour volume (T/C%) ([4]; i.p., 2 mg/kg/day, qd 27,34,41, d33): 127%
- Relative tumour volume (T/C%) ([4]; i.p., 2 mg/kg/day, qd 27,34,41, d41): 91%
- Relative tumour volume (T/C%) ([4]; i.p., 2 mg/kg/day, qd 27,34,41, d47): 94%
- Relative tumour volume (T/C%) ([4]; i.p., 2 mg/kg/day, qd 27,34,41, d55): 95%
- Relative tumour volume (T/C%) ([4]; i.p., 2 mg/kg/day, qd 27,34,41, d61): 78%
- BWC ([4]; i.p., 20 mg/kg/day, qd 27,34,41): -3
- Relative tumour volume (T/C%) ([4]; i.p., 20 mg/kg/day, qd 27,34,41, d33): 88%
- Relative tumour volume (T/C%) ([4]; i.p., 20 mg/kg/day, qd 27,34,41, d41): 77%
- Relative tumour volume (T/C%) ([4]; i.p., 20 mg/kg/day, qd 27,34,41, d47): 54%
- Relative tumour volume (T/C%) ([4]; i.p., 20 mg/kg/day, qd 27,34,41, d55): 73%
- Relative tumour volume (T/C%) ([4]; i.p., 20 mg/kg/day, qd 27,34,41, d61): 48* %
- BWC ([4]; i.p., 200 mg/kg/day, qd 27,34,41): -6
- Relative tumour volume (T/C%) ([4]; i.p., 200 mg/kg/day, qd 27,34,41, d33): 78* %
- Relative tumour volume (T/C%) ([4]; i.p., 200 mg/kg/day, qd 27,34,41, d41): 45* %
- Relative tumour volume (T/C%) ([4]; i.p., 200 mg/kg/day, qd 27,34,41, d47): 32* %
- Relative tumour volume (T/C%) ([4]; i.p., 200 mg/kg/day, qd 27,34,41, d55): 33* %
- Relative tumour volume (T/C%) ([4]; i.p., 200 mg/kg/day, qd 27,34,41, d61): 36* %

SMILES: COc1ccc2nc(-c3ccc(N)cc3)sc2c1 [Compound 93002, 2-(4-Aminophenyl)-6-methoxybenzothiazole]
- pIC50 [1, 9]: 5.12
- pIC50 [2, 10]: 6.42

SMILES: CCS(=O)(=O)O.Nc1ccc(-c2nc3ccccc3s2)cc1 [Compound 93003, Ethanesulphonic acid salt of 2-(4-aminophenyl)benzothiazole]
- MCF7-Adr C Concentrations which stimulate cell growth ([3]; column C): 3,10 µM
- pIC50 ([1]; column A, read-out: MDA 468 A IC50 at sub-micromolar concentrations): 8.62
- pIC50 ([2]; MCF-wt, column A, read-out: MCF-wt A IC50 at sub-micromolar concentrations): 8.34

SMILES: Nc1ccc(-c2nc3ccccc3s2)c(Cl)c1 [Compound 93004, 2-(4-Amino-2-Chlorophenyl)benzothiazole]
- pIC50 [1, 11]: 8.52
- pIC50 [2, 10]: 6.85

SMILES: COc1cccc2sc(-c3ccc(N)cc3Cl)nc12 [Compound 93005, 2-(4-amino-2-chlorophenyl)-4-methoxybenzothiazole]
- pIC50 ([3]; column A, read-out: MCF7-Adr A IC50 at sub-micromolar concentrations): 7.33
- pIC50 [1, 11]: 8.66
- pIC50 [2, 10]: 7.20

SMILES: c1ccc2sc(-c3ccc(N4CCCC4)cc3)nc2c1 [Compound 93006, 2-[4-(Pyrrolidin-1-yl)phenyl]benzothiazole]
- pIC50 [2, 10]: 6.06

SMILES: c1ccc2sc(-c3ccc(N4CCCCC4)cc3)nc2c1 [Compound 93007, 2-[4-(Piperidin-1-yl)phenyl]benzothiazole]
- pIC50 [2, 8]: 5.56

SMILES: c1ccc2sc(-c3ccc(N4CCOCC4)cc3)nc2c1 [Compound 93008, 2-[4-(Morpholin-4-yl)phenyl]benzothiazole]
- pIC50 [2, 10]: 6.80

SMILES: O=P1(N(CCCl)CCCl)NCCCO1 (centres unmarked) [Cyclophosphamide, reference compound]
- BWC ([4]; i.p., 150 mg/kg/day, qd 27): -4
- Relative tumour volume (T/C%) ([4]; i.p., 150 mg/kg/day, qd 27, d33): 117%
- Relative tumour volume (T/C%) ([4]; i.p., 150 mg/kg/day, qd 27, d41): 27* %
- Relative tumour volume (T/C%) ([4]; i.p., 150 mg/kg/day, qd 27, d47): 29* %
- Relative tumour volume (T/C%) ([4]; i.p., 150 mg/kg/day, qd 27, d55): 19* %
- Relative tumour volume (T/C%) ([4]; i.p., 150 mg/kg/day, qd 27, d61): 5* %

SMILES: Nc1ccc(-c2nc3ccccc3o2)cc1 [DF140, 2-(4-Aminophenyl)benzoxazole]
- pIC50 [1, 9]: < 5.00
- pIC50 [2, 10]: 6.96

SMILES: Nc1ccc(-c2nc3cc(OCc4ccccc4)ccc3s2)c(Cl)c1 [DF161, 2-(4-Amino-2-chlorophenyl)-5-benzyloxybenzothiazole]
- pIC50 [3, 12]: 4.07
- pIC50 [1, 11]: 9.15
- pIC50 [1, 9]: 5.55
- pIC50 [2, 10]: 9.00
- pIC50 [2, 8]: 4.25

SMILES: COc1cc(OC)c2sc(-c3ccc(N)cc3)nc2c1 [DF162D, 2-(4-Aminophenyl)-5,7-dimethoxybenzothiazole]
- pIC50 [3, 12]: 4.68
- pIC50 [1, 11]: 8.46
- pIC50 [2, 8]: 4.71

SMILES: Nc1ccc(-c2nc3cc(O)cc(O)c3s2)cc1 [DF162Eb, 2-(4-Aminophenyl)-5,7-dihydroxybenzothiazole]
- pIC50 [3, 12]: 4.86
- pIC50 [1, 9]: 4.79
- pIC50 [2, 8]: 4.30

SMILES: Nc1ccc(-c2nc3ccccc3s2)cc1 [Example IC, 2-(4-Aminophenyl)benzothiazole methanesulphonic acid salt]
- pIC50 [1, 6]: 8.62
- pIC50 [2, 7]: 9.15

SMILES: Nc1ccc(OS(=O)(=O)C(F)(F)F)c(-c2nc3ccccc3s2)c1 [Example XIV, 2-(3-Amino-6-trifluoromethylsulphonyloxyphenyl)benzothiazole]
- pIC50 ([2]; Homo sapiens, MCF7, MCF-7 (wild type) cells, read-out: IC50): 7.30

SMILES: O=C1c2c(O)ccc(O)c2C(=O)c2c(NCCNCCO)ccc(NCCNCCO)c21 [Mitoxantrone, reference compound]
- Relative tumour volume (T/C%) ([5]; d9): 52%
- Relative tumour volume (T/C%) ([5]; d13): 32* %
- Relative tumour volume (T/C%) ([5]; d20): 38* %
- Relative tumour volume (T/C%) ([5]; d27): 26* %
- Relative tumour volume (T/C%) ([5]; d35): 29* %
- Relative tumour volume (T/C%) ([5]; d43): 29* %
- BWC (%) ([5]; relative to saline treated animals): -10%
- BWC ([4]; i.v., 10 mg/kg/day, qd 27): -5
- Relative tumour volume (T/C%) ([4]; i.v., 10 mg/kg/day, qd 27, d33): 58* %
- Relative tumour volume (T/C%) ([4]; i.v., 10 mg/kg/day, qd 27, d41): 26* %
- Relative tumour volume (T/C%) ([4]; i.v., 10 mg/kg/day, qd 27, d47): 6* %
- Relative tumour volume (T/C%) ([4]; i.v., 10 mg/kg/day, qd 27, d55): 7* %
- Relative tumour volume (T/C%) ([4]; i.v., 10 mg/kg/day, qd 27, d61): 4* %

SMILES: CC[C@]1(O)C[C@H]2CN(CCc3c([nH]c4ccccc34)[C@@](C(=O)OC)(c3cc4c(cc3OC)N(C=O)[C@H]3[C@@](O)(C(=O)OC)[C@H](OC(C)=O)[C@]5(CC)C=CCN6CC[C@]43[C@@H]65)C2)C1 [Vincristine, reference compound]
- BWC ([4]; i.p., 1 mg/kg/day, qd 27): -6
- Relative tumour volume (T/C%) ([4]; i.p., 1 mg/kg/day, qd 27, d33): 142%
- Relative tumour volume (T/C%) ([4]; i.p., 1 mg/kg/day, qd 27, d41): 62%
- Relative tumour volume (T/C%) ([4]; i.p., 1 mg/kg/day, qd 27, d47): 61%
- Relative tumour volume (T/C%) ([4]; i.p., 1 mg/kg/day, qd 27, d55): 61%
- Relative tumour volume (T/C%) ([4]; i.p., 1 mg/kg/day, qd 27, d61): 57%
